Assay results from patent US11945787B2, “Substituted imidazoles for preventing and/or treating cell or tissue necrosis” (Ela Pharma Ltd, priority 2015, dated 2024).

Tested on: PC12 cells
Assay: KCN-induced necrosis of PC12 cells, LDH release
Format: cell-based, rat
Conditions: for % protection at indicated concentration 0.1 nM / % protection at indicated concentration 1 nM / % protection at indicated concentration 10 nM / % protection at indicated concentration 100 nM / % protection at indicated concentration 1 μM / protection of cells at 10 μM: KCN-induced necrosis (Table 2); for inhibition at 0.0001 µM / inhibition at 0.001 µM / inhibition at 0.01 µM / inhibition at 0.1 µM / inhibition at 1 µM: Rattus norvegicus, PC-12, 5 h, KCN, PC12, LDH release (Table 5); for % protection at indicated concentration 0.1 nM / inhibition at 0.0001 µM: 0.1 nM; for inhibition at 0.0001 µM: read-out: % protection at 0.1 nM; for % protection at indicated concentration 1 nM / inhibition at 0.001 µM: 1 nM; for inhibition at 0.001 µM: read-out: % protection at 1 nM; for % protection at indicated concentration 10 nM / inhibition at 0.01 µM: 10 nM; for inhibition at 0.01 µM: read-out: % protection At 10 nM; for inhibition at 0.1 µM: read-out: % protection at 0.1 μM; for inhibition at 1 µM: read-out: % protection at 1 μM
Protocol: The rat pheochromocytoma PC12 cell line was propagated in DMEM medium (Beit Haemek, Israel), supplemented with 5% heat-inactivated calf serum, 10% heat-inactivated horse serum, 2 mM L-glutamine, 100 U/ml penicillin and 100 μg/ml streptomycin. PC12 cells in logarithmic phase were seeded at a concentration of 1.2×10^5/well in 96-well plates and incubated overnight.
Thereafter, the cells were washed twice and maintained in RPMI-1640 (U-937cells) and DMEM (PC-12 cells) glucose-free medium, supplemented with 2 mM pyruvate and 10% dialyzed FCS for one hour. Then cells were treated with or without KCN (Merck, Germany) at the indicated concentrations for 7 hours (U-937 cells), or for 5 hours (PC12 cells).
Elastase inhibitors II (MeOSuc-AAPA-CMK) and elastase inhibitor III (MeOSuc-AAPV-CMK) were purchased from Calbiochem-Novabiochem, USA. Compound Gly-Phe diazomethylketone was purchased from MP Biomedicals, USA. All the compounds disclosed in Table 1 hereinabove were purchased from ChemDiv, San Diego, CA. The compounds were dissolved in DMSO and were administered 30 min before addition of the cell death inducer. The final concentration of DMSO, added to all samples, was 0.1%, which had no effect by itself siRNA and cell transfection
The amount of LDH released from lysed cells is a sensitive measure of cell death. Necrotic cell death was measured in 96-well plates using Promega CytoTox 96 LDH assay kit. LDH content from the cells lysed in 0.1% Triton X-100 for 10 min was used as an index of total LDH. The LDH released in culture medium was used as an index of necrotic cell death and the percentage from total LDH was calculated. The protection by the inhibitor was calculated based on comparing percentage of LDH release in the presence and in the absence of the inhibitor. The inhibitors were also added to totals, blanks and controls. Absorbance at 490 nm was measured by ELISA reader (BioTec).
These compounds were tested for their ability to inhibit necrosis induced by KCN in PC12 cells. The necrotic mode of cell death in this system was validated as previously described. PC12 cells were challenged with KCN as described above. The protective results of the compounds against KCN-induced necrosis assessed using LDH release method are shown below in Table 5. The IC50 values of these inhibitors is in the range of tens to single nanomolar.

For `Cc1ccnc(Nc2nc(-c3cc(C)c(C)cc3C)cs2)c1` [M008-0111, N-(4-methylpyridin-2-yl)-4-(2,4,5-trimethylphenyl)thiazol-2-amine], the “% protection at indicated concentration 0.1 nM” value was 29%, the “% protection at indicated concentration 1 nM” value was 36% and the “% protection at indicated concentration 10 nM” value was 38%. The “% protection at indicated concentration 100 nM” value was 46%, the “% protection at indicated concentration 1 μM” value was 90% and the inhibition at 0.0001 µM was 29%. The inhibition at 0.001 µM was 36%, the inhibition at 0.01 µM was 38% and the inhibition at 0.1 µM was 46%. For the same compound, the inhibition at 1 µM was 90%.
With `O=C(C1CCCC1)N1CCN=C1N1CCCC1` [M059-0082, cyclopentyl(2-(pyrrolidin-1-yl)-4,5-dihydro-1H-imidazol-1-yl)methanone] the “% protection at indicated concentration 0.1 nM” value was 33%, the “% protection at indicated concentration 1 nM” value was 25% and the “% protection at indicated concentration 10 nM” value was 51%. The “% protection at indicated concentration 100 nM” value was 79% and the “% protection at indicated concentration 1 μM” value was 85%.
Work on `O=c1oc(-c2ccco2)nc2sc3c(c12)CCCC3` [4789-3852, 2-(furan-2-yl)-5,6,7,8-tetrahydro-4H-benzo[4,5]thieno[2,3-d][1,3]oxazin-4-one] yielded an inhibition at 0.0001 µM of 18%, an inhibition at 0.001 µM of 25% and an inhibition at 0.01 µM of 55%. For the same compound, the inhibition at 0.1 µM was 61% and the inhibition at 1 µM was 81%.
With `CN(C)c1ccc(Nc2nc(-c3ccc(Cl)cc3)cs2)cc1` [4112-3656, N1-(4-(4-chlorophenyl)thiazol-2-yl)-N4,N4-dimethylbenzene-1,4-diamine] the “% protection at indicated concentration 0.1 nM” value was 30%, the “% protection at indicated concentration 1 nM” value was 25% and the “% protection at indicated concentration 10 nM” value was 55%. The “% protection at indicated concentration 100 nM” value was 73%, the “% protection at indicated concentration 1 μM” value was 77% and the inhibition at 0.0001 µM was 30%. The inhibition at 0.001 µM was 25%, the inhibition at 0.01 µM was 55% and the inhibition at 0.1 µM was 73%. The inhibition at 1 µM was 77%.
In the case of `O=C(c1ccccc1Br)N1CCN=C1N1CCCCC1` [M059-0193, (2-bromophenyl)-[2-(1-piperidyl)-4,5-dihydroimidazol-1-yl] methanone], the “protection of cells at 10 μM” value is reported as 10 μM confers protection 58% of cells.
For `COc1cc(OC)cc(-c2nc3ccc(Br)cc3c(=O)o2)c1` [3952-1000, 6-bromo-2-(3,5-dimethoxyphenyl)-4H-benzo[d][1,3]oxazin-4-one], the “% protection at indicated concentration 0.1 nM” value was 35%, the “% protection at indicated concentration 1 nM” value was 33% and the “% protection at indicated concentration 10 nM” value was 38%. For the same compound, the “% protection at indicated concentration 100 nM” value was 35%, the “% protection at indicated concentration 1 μM” value was 77% and the inhibition at 0.0001 µM was 35%. The inhibition at 0.001 µM was 33%, the inhibition at 0.01 µM was 38% and the inhibition at 0.1 µM was 35%. The inhibition at 1 µM was 77%.
With `Cc1[nH]c(=O)[nH]c(=O)c1S(=O)(=O)N1CCCCC1C` (stereo not shown) [E214-0380, 6-methyl-5-((2-methylpiperidin-1-yl)sulfonyl)pyrimidine-2,4(1H,3H)-dione] the inhibition at 0.0001 µM was 18%, the inhibition at 0.001 µM was 21% and the inhibition at 0.01 µM was 39%. For the same compound, the inhibition at 0.1 µM was 51% and the inhibition at 1 µM was 83%.
In the case of `O=C(c1ccccc1F)N1CCN=C1N1CCCCC1` [M059-0216, (2-fluorophenyl)-[2-(1-piperidyl)-4,5-dihydroimidazol-1-yl] methanone], the “protection of cells at 10 μM” value is reported as 10 μM confers protection 71% of cells.
In the case of `CC(C)C[C@H](NC(=O)N[C@H](C(=O)N[C@@H](CCC(N)=O)C(=O)N[C@@H](C)C=O)[C@@H]1CCNC(=N)N1)C(=O)O` [elastatinal, reference compound], the “KCN-induced necrotic cell death assessed by LDH release” value (PC12, KCN 5 hours, FIGS. 6, 7A-B) is reported as “no protective effect”.
In the case of `Cn1c(=O)[nH]c(=O)c2[nH]c(N3CCCCC3)nc21` [D226-0031, 3-methyl-8-(piperidin-1-yl)-1H-purine-2,6(3H,7H)-dione], the inhibition at 0.0001 µM is reported as 29%, the inhibition at 0.001 µM is reported as 26% and the inhibition at 0.01 µM is reported as 43%. It also gave an inhibition at 0.1 µM of 37% and an inhibition at 1 µM of 65%.
With `CCc1ccccc1S(=O)(=O)Nc1ccc(N2CCN(CC)CC2)cc1C(=O)O` [F684-0507, 2-(2-ethylphenylsulfonamido)-5-(4-ethylpiperazin-1-yl)benzoic acid] the inhibition at 1 µM was 56%.
`CC(C)c1cc(C2CCCN2C(=O)C2CC2)no1` (stereo not shown) [Z632-2266, cyclopropyl(2-(5-isopropylisoxazol-3-yl)pyrrolidin-1-yl)methanone] showed an inhibition at 0.0001 µM of 13%, an inhibition at 0.001 µM of 22% and an inhibition at 0.01 µM of 46%. For the same compound, the inhibition at 0.1 µM was 78% and the inhibition at 1 µM was 93%.
With `CCCC(=O)N1CCN=C1N1CCCCC1` [M059-0335, 1-(2-(piperidin-1-yl)-4,5-dihydro-1H-imidazol-1-yl)butan-1-one] the inhibition at 1 µM was 47%.
Compound `CC(=O)Nc1nc(SCCC(=O)O)n[nH]1` [L150-1122, 3-((5-acetamido-1H-1,2,4-triazol-3-yl)thio)propanoic acid] has an inhibition at 0.0001 µM of 22%, an inhibition at 0.001 µM of 25% and an inhibition at 0.01 µM of 30%. The inhibition at 0.1 µM was 44% and the inhibition at 1 µM was 68%.
Compound `CCC(CC)C(=O)N1CCN=C1N1CCCC1` [M059-0053, 2-ethyl-1-(2-(pyrrolidin-1-yl)-4,5-dihydro-1H-imidazol-1-yl)butan-1-one] has an inhibition at 1 µM of 39%.
In the case of `CCOC(=O)CN1C(=O)c2ccccc2S1(=O)=O` [5149-0030, Ethyl-2,3-dihydro-3-oxo-1,2-benzisothiazole-2-acetate-1,1-dioxide], the “% protection at indicated concentration 0.1 nM” value is reported as 19%, the “% protection at indicated concentration 1 nM” value is reported as 25% and the “% protection at indicated concentration 10 nM” value is reported as 35%. The “% protection at indicated concentration 100 nM” value was 68%, the “% protection at indicated concentration 1 μM” value was 80% and the inhibition at 0.0001 µM was 19%. For the same compound, the inhibition at 0.001 µM was 25%, the inhibition at 0.01 µM was 35% and the inhibition at 0.1 µM was 68%. It also gave an inhibition at 1 µM of 80%.
In the case of `O=C(O)Cn1nnc(-c2ccncc2)n1` [8018-2960, 2-(5-(pyridin-4-yl)-2H-tetrazol-2-yl)acetic acid], the inhibition at 0.0001 µM is reported as 38%, the inhibition at 0.001 µM is reported as 25% and the inhibition at 0.01 µM is reported as 54%. It also gave an inhibition at 0.1 µM of 80% and an inhibition at 1 µM of 84%.
`CC(=O)Oc1ccc2nc(-c3cccc(Br)c3)oc(=O)c2c1` [4334-1600, 2-(3-bromophenyl)-4-oxo-4H-benzo[d][1,3]oxazin-6-yl acetate] was tested, and the “% protection at indicated concentration 0.1 nM” value was 28%, the “% protection at indicated concentration 1 nM” value was 30% and the “% protection at indicated concentration 10 nM” value was 28%. For the same compound, the “% protection at indicated concentration 100 nM” value was 70%, the “% protection at indicated concentration 1 μM” value was 74% and the inhibition at 0.0001 µM was 28%. The inhibition at 0.001 µM was 30%, the inhibition at 0.01 µM was 28% and the inhibition at 0.1 µM was 71%. The inhibition at 1 µM was 74%.
`Cn1c(-c2c(C(C)(C)C)oc3cc(OC(=O)C(C)(C)C)ccc3c2=O)nc2ccccc21` [4356-0595, 2-(tert-butyl)-3-(1-methyl-1H-benzo[d]imidazol-2-yl)-4-oxo-4H-chromen-7-yl pivalate] was tested, and the inhibition at 0.0001 µM was 4%, the inhibition at 0.001 µM was 21% and the inhibition at 0.01 µM was 36%. For the same compound, the inhibition at 0.1 µM was 57% and the inhibition at 1 µM was 69%.
For `O=C(O)c1nc2ncccn2n1` [R052-2664, [1,2,4]triazolo[1,5-a]pyrimidine-2-carboxylic acid], the inhibition at 0.01 µM was 21%, the inhibition at 0.1 µM was 49% and the inhibition at 1 µM was 50%.
Work on `CC1Cc2ccccc2N1S(=O)(=O)c1ccc(C(=O)O)cc1` (stereo not shown) [D216-0746, 4-((2-methylindolin-1-yl)sulfonyl)benzoic acid] yielded an inhibition at 0.0001 µM of 29%, an inhibition at 0.001 µM of 37% and an inhibition at 0.01 µM of 47%. The inhibition at 0.1 µM was 84% and the inhibition at 1 µM was 90%.
For `O=C(O)c1cccc(S(=O)(=O)N2CCCC2)c1` [3506-0172, 3-(pyrrolidin-1-ylsulfonyl)benzoic acid], the inhibition at 0.01 µM was 18%, the inhibition at 0.1 µM was 19% and the inhibition at 1 µM was 52%.
`CCN1CCN(c2c(C)c(C)nc3ncnn23)CC1` [Z606-8336, 7-(4-ethylpiperazin-1-yl)-5,6-dimethyl-[1,2,4]triazolo[1,5-a]pyrimidine] was tested, and the inhibition at 0.0001 µM was 29%, the inhibition at 0.001 µM was 35% and the inhibition at 0.01 µM was 54%. For the same compound, the inhibition at 0.1 µM was 64% and the inhibition at 1 µM was 75%.
